# From PubChem BioAssay AID1963450 (Molecular Pharmacology Branch, DTP, NCI, 2024)
# Values joined by “and” are separate entries in the source; they are usually repeats but may differ in a detail not shown here. Equal entries are not always repeated.
# Test system: 556581-035-R-J1-PDC complex spheroid growth
# Experiment: Anticancer human tumor 556581-035-R-J1-PDC patient-derived ovarian carcinoma cell line growth inhibition [Asc]
# Details: for viability, T/C: stronger effect = lower value
# Summary of the method: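 Tumor cells were grown as complex spheroids with human endothelial cells (HUVEC) and human mesenchymal stem cells as stroma. Agents were tested alone and in combination, in half-log steps down from the clinical Cmax, or from 10 microM where Cmax was unknown.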
# [1] = curve of first compound, second compound 0.1 µM
# [2] = curve of first compound, second compound 0.316 µM
# [3] = curve of first compound, second compound 1 µM
# [4] = second compound 0.1 µM, first compound 0.0316 µM
# [5] = second compound 0.1 µM, first compound 0.1 µM
# [6] = second compound 0.316 µM, first compound 0.0316 µM
# [7] = second compound 0.316 µM, first compound 0.1 µM
# [8] = second compound 1 µM, first compound 0.0316 µM
# [9] = second compound 1 µM, first compound 0.1 µM
# 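Further: spheroids exposed to agents for 7 days before viability read.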
smiles,measurement,setting,value
C=CC(=O)N1CCN(c2nc(=O)n(-c3c(C)ccnc3C(C)C)c3nc(-c4c(O)cccc4F)c(F)cc23)C(C)C1 (configuration not stated) + CCN1C(C(=O)NC23CCC(C(=O)O)(CC2)CC3)C(c2cccc(Cl)c2F)C2(C(=O)Nc3cc(Cl)ccc32)C12CCCCC2,IC50,"curve of first compound, second compound 0.03 µM",> 10 µM
same,IC50,"curve of first compound, second compound 0.0949 µM",> 10 µM
same,IC50,"curve of first compound, second compound 0.3 µM",> 10 µM
same,IC50,"curve of first compound, second compound 0.949 µM",> 10 µM
same,IC50,"curve of first compound, second compound 3 µM",> 10 µM
same,"viability, T/C","second compound 0.03 µM, first compound 0.0316 µM",96.1%
same,"viability, T/C","second compound 0.03 µM, first compound 0.1 µM",98.7%
same,"viability, T/C","second compound 0.03 µM, first compound 0.316 µM",95.1%
same,"viability, T/C","second compound 0.03 µM, first compound 1 µM",102%
same,"viability, T/C","second compound 0.03 µM, first compound 3.16 µM",94.3%
same,"viability, T/C","second compound 0.03 µM, first compound 10 µM",94.4%
same,"viability, T/C","second compound 0.0949 µM, first compound 0.0316 µM",102%
same,"viability, T/C","second compound 0.0949 µM, first compound 0.1 µM",99.1%
same,"viability, T/C","second compound 0.0949 µM, first compound 0.316 µM",104%
same,"viability, T/C","second compound 0.0949 µM, first compound 1 µM",88%
same,"viability, T/C","second compound 0.0949 µM, first compound 3.16 µM",117%
same,"viability, T/C","second compound 0.0949 µM, first compound 10 µM",99.4%
same,"viability, T/C","second compound 0.3 µM, first compound 0.0316 µM",102%
same,"viability, T/C","second compound 0.3 µM, first compound 0.1 µM",103%
same,"viability, T/C","second compound 0.3 µM, first compound 0.316 µM",101%
same,"viability, T/C","second compound 0.3 µM, first compound 1 µM",86.6%
same,"viability, T/C","second compound 0.3 µM, first compound 3.16 µM",116%
same,"viability, T/C","second compound 0.3 µM, first compound 10 µM",103%
same,"viability, T/C","second compound 0.949 µM, first compound 0.0316 µM",113%
same,"viability, T/C","second compound 0.949 µM, first compound 0.1 µM",95.6%
same,"viability, T/C","second compound 0.949 µM, first compound 0.316 µM",119%
same,"viability, T/C","second compound 0.949 µM, first compound 1 µM",115%
same,"viability, T/C","second compound 0.949 µM, first compound 3.16 µM",109%
same,"viability, T/C","second compound 0.949 µM, first compound 10 µM",103%
same,"viability, T/C","second compound 3 µM, first compound 0.0316 µM",93.2%
same,"viability, T/C","second compound 3 µM, first compound 0.1 µM",87.5%
same,"viability, T/C","second compound 3 µM, first compound 0.316 µM",96%
same,"viability, T/C","second compound 3 µM, first compound 1 µM",96.5%
same,"viability, T/C","second compound 3 µM, first compound 3.16 µM",103%
same,"viability, T/C","second compound 3 µM, first compound 10 µM",84.8%
O=C(c1cc(Cc2n[nH]c(=O)c3ccccc23)ccc1F)N1CCN(C(=O)C2CC2)CC1 + Cc1c(S(C)(=O)=O)c(-c2cc(F)cc(N3CCN(c4ccc(NS(=O)(=O)c5ccc(NC(CCN6CCC(C(=O)OCCCP(=O)(O)O)CC6)CSc6ccccc6)c(S(=O)(=O)C(F)(F)F)c5)cc4)CC3)c2)c(-c2ccc(Cl)cc2)n1C(C)C,IC50,[1],> 10 µM
same,IC50,[2],> 10 µM
same,IC50,[3],> 10 µM
same,IC50,"curve of first compound, second compound 3.16 µM",> 10 µM
same,IC50,"curve of first compound, second compound 10 µM",> 10 µM
same,"viability, T/C",[4],87.3%
same,"viability, T/C",[5],81.3%
same,"viability, T/C","second compound 0.1 µM, first compound 0.316 µM",92.9%
same,"viability, T/C","second compound 0.1 µM, first compound 1 µM",96%
same,"viability, T/C","second compound 0.1 µM, first compound 3.16 µM",82.3%
same,"viability, T/C","second compound 0.1 µM, first compound 10 µM",77.2%
same,"viability, T/C",[6],73.6%
same,"viability, T/C",[7],90.2%
same,"viability, T/C","second compound 0.316 µM, first compound 0.316 µM",73.3%
same,"viability, T/C","second compound 0.316 µM, first compound 1 µM",89.8%
same,"viability, T/C","second compound 0.316 µM, first compound 3.16 µM",83.4%
same,"viability, T/C","second compound 0.316 µM, first compound 10 µM",66.8%
same,"viability, T/C",[8],70.8%
same,"viability, T/C",[9],69%
same,"viability, T/C","second compound 1 µM, first compound 0.316 µM",73.4%
same,"viability, T/C","second compound 1 µM, first compound 1 µM",78%
same,"viability, T/C","second compound 1 µM, first compound 3.16 µM",66.3%
same,"viability, T/C","second compound 1 µM, first compound 10 µM",66.4%
same,"viability, T/C","second compound 3.16 µM, first compound 0.0316 µM",63.4%
same,"viability, T/C","second compound 3.16 µM, first compound 0.1 µM",75.6%
same,"viability, T/C","second compound 3.16 µM, first compound 0.316 µM",67.6%
same,"viability, T/C","second compound 3.16 µM, first compound 1 µM",65.8%
same,"viability, T/C","second compound 3.16 µM, first compound 3.16 µM",66.9%
same,"viability, T/C","second compound 3.16 µM, first compound 10 µM",57.9%
same,"viability, T/C","second compound 10 µM, first compound 0.0316 µM",68%
same,"viability, T/C","second compound 10 µM, first compound 0.1 µM",80.7%
same,"viability, T/C","second compound 10 µM, first compound 0.316 µM",60.6%
same,"viability, T/C","second compound 10 µM, first compound 1 µM",54.2%
same,"viability, T/C","second compound 10 µM, first compound 3.16 µM",57.1%
same,"viability, T/C","second compound 10 µM, first compound 10 µM",77.5%
C#Cc1c(F)ccc2cc(O)cc(-c3ncc4c(N5CC6CCC(C5)N6)nc(OCC56CCCN5CC(F)C6)nc4c3F)c12 (configuration not stated),"viability, T/C",compound 0.0316 µM,101% and 92.2% and 88%
same,"viability, T/C",compound 0.1 µM,105% and 102% and 87.2%
same,"viability, T/C",compound 0.316 µM,94.2% and 81% and 90.1%
same,"viability, T/C",compound 1 µM,102% and 80.5% and 75.8%
same,"viability, T/C",compound 3.16 µM,97.2% and 89.5% and 113%
same,"viability, T/C",compound 10 µM,91.1% and 85.6% and 83.9%
same,IC50,curve of compound,> 10 µM
NC1CCC(NC2CC2c2ccccc2)CC1 (configuration not stated) + CNC(C)C(=O)NC1CN(S(=O)(=O)c2cccc(S(=O)(=O)N3CCC4CCC(C(=O)NC(c5ccccc5)c5ccccc5)N4C(=O)C(NC(=O)C(C)NC)C3)c2)CCC2CCC(C(=O)NC(c3ccccc3)c3ccccc3)N2C1=O,IC50,"curve of first compound, second compound 0.01 µM",> 0.1 µM
same,IC50,"curve of first compound, second compound 0.0316 µM",> 0.1 µM
same,IC50,[1],> 0.1 µM
same,IC50,[2],> 0.1 µM
same,IC50,[3],> 0.1 µM
same,"viability, T/C","second compound 0.01 µM, first compound 0.000316 µM",90.1%
same,"viability, T/C","second compound 0.01 µM, first compound 0.001 µM",93.5%
same,"viability, T/C","second compound 0.01 µM, first compound 0.00316 µM",86.5%
same,"viability, T/C","second compound 0.01 µM, first compound 0.01 µM",92.9%
same,"viability, T/C","second compound 0.01 µM, first compound 0.0316 µM",95.8%
same,"viability, T/C","second compound 0.01 µM, first compound 0.1 µM",86.8%
same,"viability, T/C","second compound 0.0316 µM, first compound 0.000316 µM",86.3%
same,"viability, T/C","second compound 0.0316 µM, first compound 0.001 µM",83.8%
same,"viability, T/C","second compound 0.0316 µM, first compound 0.00316 µM",87.4%
same,"viability, T/C","second compound 0.0316 µM, first compound 0.01 µM",72%
same,"viability, T/C","second compound 0.0316 µM, first compound 0.0316 µM",80.2%
same,"viability, T/C","second compound 0.0316 µM, first compound 0.1 µM",86.1%
same,"viability, T/C","second compound 0.1 µM, first compound 0.000316 µM",86.1%
same,"viability, T/C","second compound 0.1 µM, first compound 0.001 µM",87.5%
same,"viability, T/C","second compound 0.1 µM, first compound 0.00316 µM",75.1%
same,"viability, T/C","second compound 0.1 µM, first compound 0.01 µM",64.5%
same,"viability, T/C",[4],80.5%
same,"viability, T/C",[5],86%
same,"viability, T/C","second compound 0.316 µM, first compound 0.000316 µM",75.2%
same,"viability, T/C","second compound 0.316 µM, first compound 0.001 µM",73.1%
same,"viability, T/C","second compound 0.316 µM, first compound 0.00316 µM",73%
same,"viability, T/C","second compound 0.316 µM, first compound 0.01 µM",71.9%
same,"viability, T/C",[6],77.3%
same,"viability, T/C",[7],64.2%
same,"viability, T/C","second compound 1 µM, first compound 0.000316 µM",66.8%
same,"viability, T/C","second compound 1 µM, first compound 0.001 µM",73%
same,"viability, T/C","second compound 1 µM, first compound 0.00316 µM",73.1%
same,"viability, T/C","second compound 1 µM, first compound 0.01 µM",63.4%
same,"viability, T/C",[8],67.6%
same,"viability, T/C",[9],71.4%
